From US4315010A, “Glaucine phosphate salts” (priority 1979, dated 1982)
Structures can show the parent of a compound that is named as a salt. Where two headings read alike, the source gives them in different places.

Experiments:
[1] = format: physicochemical; conditions: for Percentage Remaining after 3 months at, 40° C. / Percentage Remaining after 3 months at, 50° C. / Percentage Remaining after 3 months at, Ambient / assay after 12 months: syrup; for Percentage Remaining after 3 months at, 40° C. / Percentage Remaining after 3 months at, 50° C. / Percentage Remaining after 3 months at, Ambient: 131400 min; for assay after 12 months: 525600 min; for percent of original concentration retained in syrup: one month, d,l-glaucine phosphate 0.6 percent, others 0.2 percent, 43800 min
Protocol: Stability of d,l-glaucine phosphate was examined in the syrup vehicle of Example 4.
Syrups containing codeine phosphate, 0.2 percent contained 97.5, 104.5 or 100 percent, respectively, after one month at ambient temperature, 40° C. or 55° C. […] After three months, the percentage amount of antitussive agent remaining was as shown below.

monkeys = assay: Abuse potential, self-administration in codeine-habituated monkeys (Deneau et al.); format: in vivo; conditions: codeine 100 micrograms/kilogram per injection; d,l-glaucine phosphate substituted at 50, 100, 200 and 400 micrograms per kilogram injection
Source text: The abuse potential of d,l-glaucine phosphate was studied in two monkeys in a procedure similar to that described by Deneau, et al., Psychopharmacologia 16(1):30-48, 1969.
In this procedure, the test monkeys are restrained and a catheter inserted into the external jugular vein for injection of test substances in response to pressing a bar lever by the monkey. The test monkeys are first habituated to self-administer codeine at a rate of 100 micrograms/kilogram per injection. The self-administration rate of the two monkeys so trained and habituated was about 100 to 150 lever pushes per two hour session at the 100 microgram codeine level. […]

[2] = Therapeutic ratio LD50/ED50; format: in vivo; conditions: mouse LD50, guinea pig ED50
mice [3] = assay: Analgesic activity, phenyl-p-quinone mouse writhing test (printed "writing test"); format: in vivo; conditions: 0.5 h, oral, 30 minutes prior to phenyl-p-quinone challenge
Protocol: Text compounds were evaluated for analgesic activity in the phenyl-p-quinone mouse writing test of Hendershot & Forsaith, J. Pharmacol. Exptl. Therap. 125(3) 237 (1959). The test compounds were administered orally 30 minutes prior to the phenyl-p-quinone challenge. In these operations, the oral ED50 's for d-glaucine. […]

[4] = Solubility in cough syrup vehicle; format: physicochemical; conditions: cough syrup vehicle of Example 4
Protocol: A cough syrup vehicle formulation was prepared containing the following pharmaceutically-acceptable excipients:
Water g.s. to 4 liters total

guinea pigs [5] = assay: Antitussive test, citric acid aerosol-induced cough, intraperitoneal injection; format: in vivo; conditions: Cavia porcellus, ip
[6] = Stability of syrup under continuous light in amber and flint glass bottles; format: physicochemical; conditions: one month, ambient temperature, continuous light about 2000 Foot-candles, 43800 min
Protocol: In a procedure similar to that of Example 5, syrup formulations were prepared, placed in amber glass bottles and transparent (flint) glass bottles, and held under conditions of ambient temperature with continuous exposure to light. (About 2000 Foot-candles of combined fluorescent and incandescent light, for 24 hours/day.)

Acute lethality in mice = conditions: mouse, in vivo, oral, mortality within 72 hours
Protocol: In other operations, various dosages of d,l-glaucine phosphate (2:3) were administered to groups mice by the oral route or by intraperitoneal injection, and the dosage which is lethal to 50 percent of the mice (LD50) was calculated from the mortality observations within 72 hours after administration.

mice [7] = format: in vivo; conditions: naloxone 100 mg/kg intraperitoneal after last dose
Protocol: Physical dependency liability was evaluated in mice by the procedure of Saelens, et al., Arch. Int. Pharmacodynam, 190:213-218, 1971. In this procedure, mice are administered increasing doses of a test compound at intervals on two consecutive days. The last dosage on the second day is followed by intraperitoneal injection of the morphine antagonist, naloxone, at a dosage of 100 mg/kg, and the mice are observed for characteristic jumping behaviour indicative of opiate withdrawals or morphine antagonism.

guinea pigs [8] = assay: Antitussive test, citric acid aerosol-induced cough, oral dosing; format: in vivo; conditions: for ED50: Cavia porcellus, po, 1 h; for 95 percent confidence limits of the ED50: antitussive
Protocol: Separate groups of guinea pigs were orally administered various doses of a test compound, or distilled water for a control group. One hour after oral dosing, the guinea pigs were exposed to a 5 percent aerosol of citric acid for a 10 minute test period. The number of cough responses produced during the last five minutes of exposure to the citric acid aerosol was recorded and the dosage effect to suppress coughing in 50 percent of the guinea pigs (ED50) was calculated. An antitussive effect was recorded for a guinea pig when its total number of coughs during the 5 minute test period were at least two standard deviation units below the mean number of coughs per guinea pig in the control group. […];

[9] = Plasma concentrations of l- or d-glaucine after oral administration; format: in vivo; conditions: guinea pigs
Protocol: In other operations, l- and d-glaucine phosphate (2:3) were orally administered to separate guinea pigs and plasma concentrations of l- or d-glaucine were measured at intervals after dosing.

[10] = listed as d,1-Glaucine . HBr, hydrobromide

COc1cc2c(cc1OC)-c1c(OC)c(OC)cc3c1C(C2)N(C)CC3 (racemic) [d,l-glaucine hydrobromide]
Percentage Remaining after 3 months at, 40° C. ([1]; 40° C., listed as d,1-Glaucine . HBr, hydrobromide): 93.3 Percentage | Percentage Remaining after 3 months at, 50° C. [1, 10]: 91.4 Percentage | Percentage Remaining after 3 months at, Ambient [1, 10]: 100.8 Percentage | assay after 12 months ([1]; 55° C., hydrobromide): 87.3% | percent of original concentration retained in syrup ([1]; 40° C., hydrobromide): 96% | percent of original concentration retained in syrup ([1]; 55° C., hydrobromide): 89.5% | percent of original concentration retained in syrup ([1]; ambient temperature, hydrobromide): 99%

COc1cc2c(cc1OC)-c1c(OC)c(OC)cc3c1C(C2)N(C)CC3 (racemic) [d,l-glaucine phosphate, d,l-Glaucine Phosphate]
monkey response rate (self-administration) (monkeys): 10-20 responses/two hour session | therapeutic ratio (LD50/ED50) ([2]; intraperitoneal): 10 | therapeutic ratio (LD50/ED50) ([2]; oral antitussive activity): 38 | ED50 (mice [3]): 23 mg/kg | Percentage Remaining after 3 months at, 40° C. ([1]; 40° C.): 101.1 Percentage | Percentage Remaining after 3 months at, 50° C. [1]: 98.7 Percentage | Percentage Remaining after 3 months at, Ambient [1]: 101.6 Percentage | assay after 12 months ([1]; 55° C., listed as phosphate salt): 101.8% | percent of original concentration retained in syrup ([1]; 40° C.): 100.0% | percent of original concentration retained in syrup ([1]; 55° C.): 98.4% | percent of original concentration retained in syrup ([1]; ambient temperature): 101.3% | solubility [4]: 10 mg/mL | solubility in cough syrup vehicle per 5 milliliter dosage unit [4]: about 50 milligrams per 5 milliliter dosage unit | ED50 (guinea pigs [5]): 17.3 mg/kg | assay of syrup in amber glass bottles ([6]; amber glass): 97.7% | assay of syrup in transparent (flint) glass bottles ([6]; flint glass): 90% | LD50 at 72 h (Acute lethality in mice): ≥ 681 mg/kg | mice jumping after naloxone treatment (mice [7]): no jumping behaviour in any of the eight mice tested | ED50 (guinea pigs [8]; restated in the description, read-out: oral ED50, antitussive): 17.8 mg/kg | 95 percent confidence limits of the ED50 (guinea pigs [8]): 6.0-53.1 milligrams per kilogram

COc1ccc2c3c1O[C@H]1[C@@H](O)C=C[C@H]4[C@@H](C2)N(C)CC[C@@]341 [codeine phosphate]
Percentage Remaining after 3 months at, 40° C. ([1]; 40° C.): 101.1 Percentage | Percentage Remaining after 3 months at, 50° C. [1]: 88.4 Percentage | Percentage Remaining after 3 months at, Ambient [1]: 101.3 Percentage | percent of original concentration retained in syrup ([1]; 40° C.): 104.5% | percent of original concentration retained in syrup ([1]; 55° C.): 100% | percent of original concentration retained in syrup ([1]; ambient temperature): 97.5% | mice jumping after naloxone treatment (mice [7]): 2 of 6 | total jumps after naloxone treatment (mice [7]): 23 jumps total | 95 percent confidence limits of the ED50 (guinea pigs [8]): 52.3-232.6 milligrams per kilogram

COc1ccc2c3c1O[C@H]1[C@@H](O)C=C[C@H]4[C@@H](C2)N(C)CC[C@@]341 [codeine, reference compound]
monkey response rate (self-administration) (monkeys): 100-150 responses/two hour session

COc1cc2c(cc1OC)-c1c(OC)c(OC)cc3c1[C@H](C2)N(C)CC3 [d-glaucine phosphate, reference compound]
ED50, dosage effect to suppress coughing in 50 percent of the guinea pigs (guinea pigs [8]; one hour before 5 percent citric acid aerosol, 60 min): 170.1 milligrams per kilogram

COc1cc2c(cc1OC)-c1c(OC)c(OC)cc3c1[C@@H](C2)N(C)CC3 [l-glaucine phosphate, l-glaucine phosphate (2:3)]
time within which high plasma levels of glaucine were produced [9]: ≤ 15 min | ED50 (guinea pigs [8]; one hour before 5 percent citric acid aerosol, read-out: ED50, dosage effect to suppress coughing in 50 percent of the guinea pigs): 10.9 mg/kg | 95 percent confidence limits of the ED50 (guinea pigs [8]): 0.4-33.8 milligrams per kilogram
